From paper PMC5428354, “Screening of a natural compound library identifies emodin, a natural compound from Rheum palmatum Linn that inhibits DPP4” (PeerJ, 2017) come the findings set out here.

DPP4, sequence (P27487 whole entry): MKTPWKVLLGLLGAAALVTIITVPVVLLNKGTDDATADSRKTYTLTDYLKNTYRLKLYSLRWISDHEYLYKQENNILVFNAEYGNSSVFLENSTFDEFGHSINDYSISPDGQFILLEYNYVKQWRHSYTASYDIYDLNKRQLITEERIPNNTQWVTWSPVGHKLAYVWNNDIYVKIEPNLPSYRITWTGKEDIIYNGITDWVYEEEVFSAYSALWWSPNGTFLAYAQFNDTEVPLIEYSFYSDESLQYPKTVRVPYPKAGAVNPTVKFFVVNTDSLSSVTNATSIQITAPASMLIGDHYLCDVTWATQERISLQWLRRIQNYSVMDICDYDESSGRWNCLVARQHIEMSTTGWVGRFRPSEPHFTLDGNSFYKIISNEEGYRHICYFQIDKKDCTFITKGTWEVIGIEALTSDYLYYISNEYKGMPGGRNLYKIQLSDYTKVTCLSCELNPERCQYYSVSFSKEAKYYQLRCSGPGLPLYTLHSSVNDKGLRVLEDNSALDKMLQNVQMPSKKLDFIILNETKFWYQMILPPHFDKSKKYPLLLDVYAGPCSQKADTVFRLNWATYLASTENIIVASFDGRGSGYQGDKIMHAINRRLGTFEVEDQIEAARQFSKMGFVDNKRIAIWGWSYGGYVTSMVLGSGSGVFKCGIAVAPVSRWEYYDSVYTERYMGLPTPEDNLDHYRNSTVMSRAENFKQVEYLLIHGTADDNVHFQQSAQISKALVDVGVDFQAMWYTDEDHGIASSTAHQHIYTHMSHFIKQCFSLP

One assay concerns the target DPP4 (Homo sapiens, UniProt P27487). As to the kind of experiment: DPP4 activity assay (DPP4 inhibitor screening assay kit, Cayman).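 Also: fluorescence read at excitation 360 nm and emission 460 nm after the enzyme reaction ran 30 min at 37 °C in a 96-well plate.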 It is filed as biochemical. On the set-up: purchased Cayman Chemical, Ann Arbor, MI, USA. The settings on record: 0.5 h, 10 µM; control mean 100.0; Figure 1A raw data; read-out: DPP4 activity in library screen, Exp 1.
With `C=C[C@](C)(O)CC[C@@H]1[C@@]2(C)CCCC(C)(C)[C@@H]2CC[C@@]1(C)O` [Sclareol], the remaining activity at 10 µM was 80.9%.

Turning to `O=c1c(O)c(-c2ccc(O)c(O)c2)oc2cc(O)cc(O)c12` [Quercetin], the remaining activity at 10 µM was 62.7%.

As for `OCc1ccc(O[C@@H]2O[C@H](CO)[C@@H](O)[C@H](O)[C@H]2O)cc1` [Gastrodin], the remaining activity at 10 µM amounted to 91%.

For the molecule `O=C1C[C@@H](c2ccc(O)cc2)Oc2cc(O)cc(O)c21` [Naringenin], the remaining activity at 10 µM amounted to 80.4%.

Consider `COc1cc2c(cc1OC)[C@@H]1Cc3ccc(OC)c(OC)c3CN1CC2` [Rotundine], for which the remaining activity at 10 µM worked out at 103%.

In the case of `CC1(C)[C@@H](O)CC[C@]2(C)[C@H]3C(=O)C=C4[C@@H]5C[C@@](C)(C(=O)O)CC[C@]5(C)CC[C@@]4(C)[C@]3(C)CC[C@@H]12` [Enoxolone], the remaining activity at 10 µM amounted to 84.3%.

For `Nc1nc2c(ncn2[C@@H]2O[C@H](CO)[C@@H](O)[C@H]2O)c(=O)[nH]1` [Guanosine], the remaining activity at 10 µM is 104%.

Consider `COc1ccc(-c2cc(=O)c3c(O)cc(O[C@@H]4O[C@H](CO[C@@H]5O[C@@H](C)[C@H](O)[C@@H](O)[C@H]5O)[C@@H](O)[C@H](O)[C@H]4O)cc3o2)cc1O` [Diosmin], for which the remaining activity at 10 µM is 66.8%.

For the molecule `O=C(O[C@@H]1Cc2c(O)cc(O)cc2O[C@@H]1c1cc(O)c(O)c(O)c1)c1cc(O)c(O)c(O)c1` [(-)-Epigallocatechin Gallate], the remaining activity at 10 µM was 100%.

Regarding `O=C(CCc1ccc(O)cc1)c1c(O)cc(O)cc1O[C@@H]1O[C@H](CO)[C@@H](O)[C@H](O)[C@H]1O` [Phlorizin], the remaining activity at 10 µM is 63.2%.

Take `N[C@@H](Cc1c[nH]c2ccc(O)cc12)C(=O)O` [5-hydroxytryptophan (5-HTP), 5-hydroxytryptophan]: the remaining activity at 10 µM was 93.3%.

In the case of `O=C(O)[C@H]1O[C@@H](Oc2cc3oc(-c4ccccc4)cc(=O)c3c(O)c2O)[C@H](O)[C@@H](O)[C@@H]1O` [Baicalin], the remaining activity at 10 µM came out at 71.4%.

Turning to `COc1ccc(-c2coc3cc(O)ccc3c2=O)cc1` [Formononetin], the remaining activity at 10 µM amounted to 102%.

`C[C@H]1[C@@H](O)O[C@@H]2O[C@@]3(C)CC[C@H]4[C@H](C)CC[C@@H]1[C@@]24OO3` [Dihydroartemisinin (DHA), Dihydroartemisinin]: the remaining activity at 10 µM was 97.1%.

Consider `COc1cc(O)c(CC=C(C)C)c(O)c1C(=O)/C=C/c1ccc(O)cc1` [Xanthohumol], for which the remaining activity at 10 µM came to 94.5%.

Regarding `COc1ccc(-c2cc(=O)c3c(OC)c(OC)c(OC)c(OC)c3o2)cc1OC` [Nobiletin], the remaining activity at 10 µM was found to be 81.7%.

Still in this assay, the particulars now being: 0.5 h, 10 µM; control mean 100.0; Figure 1A raw data; read-out: DPP4 activity in library screen, Exp 2.
Take `C=C[C@](C)(O)CC[C@@H]1[C@@]2(C)CCCC(C)(C)[C@@H]2CC[C@@]1(C)O` [Sclareol]: the remaining activity at 10 µM came to 99.9%.

In the case of `O=c1c(O)c(-c2ccc(O)c(O)c2)oc2cc(O)cc(O)c12` [Quercetin], the remaining activity at 10 µM is 62.1%.

`OCc1ccc(O[C@@H]2O[C@H](CO)[C@@H](O)[C@H](O)[C@H]2O)cc1` [Gastrodin]: the remaining activity at 10 µM was 91.5%.

Take `O=C1C[C@@H](c2ccc(O)cc2)Oc2cc(O)cc(O)c21` [Naringenin]: the remaining activity at 10 µM was 87.5%.

Consider `COc1cc2c(cc1OC)[C@@H]1Cc3ccc(OC)c(OC)c3CN1CC2` [Rotundine], for which the remaining activity at 10 µM amounted to 99.8%.

Take `CC1(C)[C@@H](O)CC[C@]2(C)[C@H]3C(=O)C=C4[C@@H]5C[C@@](C)(C(=O)O)CC[C@]5(C)CC[C@@]4(C)[C@]3(C)CC[C@@H]12` [Enoxolone]: the remaining activity at 10 µM was determined as 87%.

`Nc1nc2c(ncn2[C@@H]2O[C@H](CO)[C@@H](O)[C@H]2O)c(=O)[nH]1` [Guanosine]: the remaining activity at 10 µM is 102%.

Consider `COc1ccc(-c2cc(=O)c3c(O)cc(O[C@@H]4O[C@H](CO[C@@H]5O[C@@H](C)[C@H](O)[C@@H](O)[C@H]5O)[C@@H](O)[C@H](O)[C@H]4O)cc3o2)cc1O` [Diosmin], for which the remaining activity at 10 µM turned out to be 69%.

On to `O=C(O[C@@H]1Cc2c(O)cc(O)cc2O[C@@H]1c1cc(O)c(O)c(O)c1)c1cc(O)c(O)c(O)c1` [(-)-Epigallocatechin Gallate], for which the remaining activity at 10 µM is 90.2%.

Consider `O=C(CCc1ccc(O)cc1)c1c(O)cc(O)cc1O[C@@H]1O[C@H](CO)[C@@H](O)[C@H](O)[C@H]1O` [Phlorizin], for which the remaining activity at 10 µM came out at 86.5%.

In the case of `N[C@@H](Cc1c[nH]c2ccc(O)cc12)C(=O)O` [5-hydroxytryptophan (5-HTP), 5-hydroxytryptophan], the remaining activity at 10 µM was determined as 82.6%.

As to `O=C(O)[C@H]1O[C@@H](Oc2cc3oc(-c4ccccc4)cc(=O)c3c(O)c2O)[C@H](O)[C@@H](O)[C@@H]1O` [Baicalin], the remaining activity at 10 µM was 51.3%.

Regarding `COc1ccc(-c2coc3cc(O)ccc3c2=O)cc1` [Formononetin], the remaining activity at 10 µM is 85.5%.

As to `C[C@H]1[C@@H](O)O[C@@H]2O[C@@]3(C)CC[C@H]4[C@H](C)CC[C@@H]1[C@@]24OO3` [Dihydroartemisinin (DHA), Dihydroartemisinin], the remaining activity at 10 µM was determined as 91%.

Turning to `COc1cc(O)c(CC=C(C)C)c(O)c1C(=O)/C=C/c1ccc(O)cc1` [Xanthohumol], the remaining activity at 10 µM came to 102%.

`COc1ccc(-c2cc(=O)c3c(OC)c(OC)c(OC)c(OC)c3o2)cc1OC` [Nobiletin]: the remaining activity at 10 µM was found to be 69.9%.

Still in this assay, the particulars now being: 0.5 h, 10 µM; control mean 100.0; Figure 1A raw data; read-out: DPP4 activity in library screen, Exp 3.
Consider `C=C[C@](C)(O)CC[C@@H]1[C@@]2(C)CCCC(C)(C)[C@@H]2CC[C@@]1(C)O` [Sclareol], for which the remaining activity at 10 µM came to 71.4%.

Turning to `O=c1c(O)c(-c2ccc(O)c(O)c2)oc2cc(O)cc(O)c12` [Quercetin], the remaining activity at 10 µM amounted to 72.1%.

Turning to `OCc1ccc(O[C@@H]2O[C@H](CO)[C@@H](O)[C@H](O)[C@H]2O)cc1` [Gastrodin], the remaining activity at 10 µM turned out to be 98.6%.

In the case of `O=C1C[C@@H](c2ccc(O)cc2)Oc2cc(O)cc(O)c21` [Naringenin], the remaining activity at 10 µM turned out to be 94.1%.

Consider `COc1cc2c(cc1OC)[C@@H]1Cc3ccc(OC)c(OC)c3CN1CC2` [Rotundine], for which the remaining activity at 10 µM was 104%.

For the molecule `CC1(C)[C@@H](O)CC[C@]2(C)[C@H]3C(=O)C=C4[C@@H]5C[C@@](C)(C(=O)O)CC[C@]5(C)CC[C@@]4(C)[C@]3(C)CC[C@@H]12` [Enoxolone], the remaining activity at 10 µM was 95.5%.

In the case of `Nc1nc2c(ncn2[C@@H]2O[C@H](CO)[C@@H](O)[C@H]2O)c(=O)[nH]1` [Guanosine], the remaining activity at 10 µM is 90.2%.

`COc1ccc(-c2cc(=O)c3c(O)cc(O[C@@H]4O[C@H](CO[C@@H]5O[C@@H](C)[C@H](O)[C@@H](O)[C@H]5O)[C@@H](O)[C@H](O)[C@H]4O)cc3o2)cc1O` [Diosmin]: the remaining activity at 10 µM came to 74.6%.

For `O=C(O[C@@H]1Cc2c(O)cc(O)cc2O[C@@H]1c1cc(O)c(O)c(O)c1)c1cc(O)c(O)c(O)c1` [(-)-Epigallocatechin Gallate], the remaining activity at 10 µM was 81.9%.

Consider `O=C(CCc1ccc(O)cc1)c1c(O)cc(O)cc1O[C@@H]1O[C@H](CO)[C@@H](O)[C@H](O)[C@H]1O` [Phlorizin], for which the remaining activity at 10 µM is 114%.

For the molecule `N[C@@H](Cc1c[nH]c2ccc(O)cc12)C(=O)O` [5-hydroxytryptophan (5-HTP), 5-hydroxytryptophan], the remaining activity at 10 µM worked out at 90.6%.

On to `O=C(O)[C@H]1O[C@@H](Oc2cc3oc(-c4ccccc4)cc(=O)c3c(O)c2O)[C@H](O)[C@@H](O)[C@@H]1O` [Baicalin], for which the remaining activity at 10 µM came out at 111%.

Regarding `COc1ccc(-c2coc3cc(O)ccc3c2=O)cc1` [Formononetin], the remaining activity at 10 µM amounted to 108%.

Take `C[C@H]1[C@@H](O)O[C@@H]2O[C@@]3(C)CC[C@H]4[C@H](C)CC[C@@H]1[C@@]24OO3` [Dihydroartemisinin (DHA), Dihydroartemisinin]: the remaining activity at 10 µM came out at 88.2%.

In the case of `COc1cc(O)c(CC=C(C)C)c(O)c1C(=O)/C=C/c1ccc(O)cc1` [Xanthohumol], the remaining activity at 10 µM worked out at 126%.

As for `COc1ccc(-c2cc(=O)c3c(OC)c(OC)c(OC)c(OC)c3o2)cc1OC` [Nobiletin], the remaining activity at 10 µM came out at 67.6%.

Still in this assay, the particulars now being: 0.5 h, 10 µM; control mean 100.0; mean of Exp 1-3; read-out: DPP4 activity in library screen, Mean.
`C=C[C@](C)(O)CC[C@@H]1[C@@]2(C)CCCC(C)(C)[C@@H]2CC[C@@]1(C)O` [Sclareol]: the remaining activity at 10 µM was 84.1%.

As for `O=c1c(O)c(-c2ccc(O)c(O)c2)oc2cc(O)cc(O)c12` [Quercetin], the remaining activity at 10 µM worked out at 65.6%.

Regarding `OCc1ccc(O[C@@H]2O[C@H](CO)[C@@H](O)[C@H](O)[C@H]2O)cc1` [Gastrodin], the remaining activity at 10 µM came out at 93.7%.

Take `O=C1C[C@@H](c2ccc(O)cc2)Oc2cc(O)cc(O)c21` [Naringenin]: the remaining activity at 10 µM was determined as 87.3%.

Turning to `COc1cc2c(cc1OC)[C@@H]1Cc3ccc(OC)c(OC)c3CN1CC2` [Rotundine], the remaining activity at 10 µM amounted to 102%.

For `CC1(C)[C@@H](O)CC[C@]2(C)[C@H]3C(=O)C=C4[C@@H]5C[C@@](C)(C(=O)O)CC[C@]5(C)CC[C@@]4(C)[C@]3(C)CC[C@@H]12` [Enoxolone], the remaining activity at 10 µM was found to be 88.9%.

In the case of `Nc1nc2c(ncn2[C@@H]2O[C@H](CO)[C@@H](O)[C@H]2O)c(=O)[nH]1` [Guanosine], the remaining activity at 10 µM came to 98.5%.

As to `COc1ccc(-c2cc(=O)c3c(O)cc(O[C@@H]4O[C@H](CO[C@@H]5O[C@@H](C)[C@H](O)[C@@H](O)[C@H]5O)[C@@H](O)[C@H](O)[C@H]4O)cc3o2)cc1O` [Diosmin], the remaining activity at 10 µM came out at 70.1%.

Consider `O=C(O[C@@H]1Cc2c(O)cc(O)cc2O[C@@H]1c1cc(O)c(O)c(O)c1)c1cc(O)c(O)c(O)c1` [(-)-Epigallocatechin Gallate], for which the remaining activity at 10 µM is 90.8%.

Take `O=C(CCc1ccc(O)cc1)c1c(O)cc(O)cc1O[C@@H]1O[C@H](CO)[C@@H](O)[C@H](O)[C@H]1O` [Phlorizin]: the remaining activity at 10 µM came to 87.8%.

Regarding `N[C@@H](Cc1c[nH]c2ccc(O)cc12)C(=O)O` [5-hydroxytryptophan (5-HTP), 5-hydroxytryptophan], the remaining activity at 10 µM was determined as 88.8%.

As for `O=C(O)[C@H]1O[C@@H](Oc2cc3oc(-c4ccccc4)cc(=O)c3c(O)c2O)[C@H](O)[C@@H](O)[C@@H]1O` [Baicalin], the remaining activity at 10 µM was determined as 77.9%.

As for `COc1ccc(-c2coc3cc(O)ccc3c2=O)cc1` [Formononetin], the remaining activity at 10 µM came out at 98.7%.

On to `C[C@H]1[C@@H](O)O[C@@H]2O[C@@]3(C)CC[C@H]4[C@H](C)CC[C@@H]1[C@@]24OO3` [Dihydroartemisinin (DHA), Dihydroartemisinin], for which the remaining activity at 10 µM was determined as 92.1%.

Turning to `COc1cc(O)c(CC=C(C)C)c(O)c1C(=O)/C=C/c1ccc(O)cc1` [Xanthohumol], the remaining activity at 10 µM came out at 107%.

For the molecule `COc1ccc(-c2cc(=O)c3c(OC)c(OC)c(OC)c(OC)c3o2)cc1OC` [Nobiletin], the remaining activity at 10 µM is 73.1%.
